Data reported in patent publication US9914730B2, “Azaquinazoline inhibitors of Atypical protein Kinase C” (Ignyta, Inc., priority 2012, dated 2018).
pIC50: −log10 of the molar value.

Biological target: T1, full-length human PKCι (Homo sapiens, UniProt P41743)
T1 construct: Recombinant, full-length human PKCι expressed in Sf21 insect cells is also commercially available; purchased; host or cells: Sf21 insect cells
T1 sequence (P41743 1-596): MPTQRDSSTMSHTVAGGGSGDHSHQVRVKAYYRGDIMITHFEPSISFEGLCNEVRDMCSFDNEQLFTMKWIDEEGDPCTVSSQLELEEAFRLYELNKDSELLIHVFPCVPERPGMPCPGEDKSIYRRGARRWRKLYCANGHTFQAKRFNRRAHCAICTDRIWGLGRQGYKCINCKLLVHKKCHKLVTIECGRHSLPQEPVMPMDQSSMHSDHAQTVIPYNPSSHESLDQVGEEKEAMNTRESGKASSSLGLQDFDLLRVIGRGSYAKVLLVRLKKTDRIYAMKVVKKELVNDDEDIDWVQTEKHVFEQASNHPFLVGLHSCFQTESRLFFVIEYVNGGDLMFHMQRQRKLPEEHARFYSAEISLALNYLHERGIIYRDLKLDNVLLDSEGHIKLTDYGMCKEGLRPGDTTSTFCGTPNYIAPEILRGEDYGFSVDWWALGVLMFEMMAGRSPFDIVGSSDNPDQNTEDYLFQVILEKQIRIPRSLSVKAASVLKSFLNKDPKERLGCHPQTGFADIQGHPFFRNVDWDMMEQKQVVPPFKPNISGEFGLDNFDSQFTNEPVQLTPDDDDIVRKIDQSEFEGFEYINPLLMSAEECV
Experiment: PKCι IC50 IMAP assay, full-length PKCι at 150 μM ATP
Type: biochemical
Details: read-out: IC50 in IMAP assay against full length PKCi at 150 μM ATP
Summary of the method: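 IMAP fluorescence polarisation (ex 485/em 530 nm) read-out; % inhibition set from no-compound (0%) and no-enzyme (100%) controls, IC50 from dose-response curve fit. Sf21-expressed full-length enzyme ~15 pM, 100 nM FAM peptide, ATP 150 μM (5× KM^APP), 60 min at RT.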

Row | SMILES | pIC50
1 | C[C@H]1CN(c2nc(-c3ccnc(Nc4nc(F)cc(F)c4F)c3)nc3cncc(C4CC4)c23)CCN1 [Example 2004, {4-[5-Cyclopropyl-4-((S)-3-methyl-piperazin-1-yl)-pyrido[3,4-d]pyrimidin-2-yl]-pyridin-2-yl}-(3,4,6-trifluoro-pyridin-2-yl)-amine] | > 7.00
2 | COc1cncc2nc(-c3ccncc3)nc(N3CCN(C)[C@@H](Cc4ccccc4)C3)c12 [Example 81, (2S)-2-benzyl-4-[5-methoxy-2-(pyridin-4-yl)pyrido[3,4-d]pyrimidin-4-yl]-1-methylpiperazine; formic acid] | 6.00 to 7.00
3 | Cc1cc2c(-c3nc(N4CCNCC4)c4c(C5CC5)cnc(Cl)c4n3)ccnc2[nH]1 [Example 2092, 8-Chloro-5-cyclopropyl-2-(2-methyl-1H-pyrrolo[2,3-b]pyridin-4-yl)-4-piperazin-1-yl-pyrido[3,4-d]pyrimidine] | > 7.00
4 | O=C(NCCF)C1CCN(c2nc(-c3ccnc(Nc4c(F)cccc4F)c3)nc3cncc(C4CC4)c23)CC1 [Example 658, 1-{5-Cyclopropyl-2-[2-(2,6-difluoro-phenylamino)-pyridin-4-yl]-pyrido[3,4-d]pyrimidin-4-yl}-piperidine-4-carboxylic acid (2-fluoro-ethyl)-amide] | 5.00 to 6.00
5 | Fc1cnc(Nc2cc(-c3nc(NC4CCNCC4F)c4c(C5CC5)cncc4n3)ccn2)c(F)c1 (centres unmarked) [Example 2186, {5-Cyclopropyl-2-[2-(3,5-difluoro-pyridin-2-ylamino)-pyridin-4-yl]-pyrido[3,4-d]pyrimidin-4-yl}-(3-fluoro-piperidin-4-yl)-amine] | 6.00 to 7.00
6 | C[C@H]1CN(c2nc(-c3ccnc(Nc4nc(F)c(F)cc4F)c3)nc3cncc(C4CC4)c23)CCN1 [Example 830, {4-[5-Cyclopropyl-4-((S)-3-methyl-piperazin-1-yl)-pyrido[3,4-d]pyrimidin-2-yl]-pyridin-2-yl}-(3,5,6-trifluoro-pyridin-2-yl)-amine] | 5.00 to 6.00
7 | Fc1ccccc1-c1cc2c(-c3nc(N4CCNCC4)c4c(C5CCC5)cncc4n3)ccnc2[nH]1 [Example 2203, 5-Cyclobutyl-2-[2-(2-fluoro-phenyl)-1H-pyrrolo[2,3-b]pyridin-4-yl]-4-piperazin-1-yl-pyrido[3,4-d]pyrimidine] | > 7.00
8 | c1cc(C2CC2)n2nc(Nc3cc(-c4nc(N5CCNCC5)c5c(C6CC6)cncc5n4)ccn3)nc2c1 [Example 825, [4-(5-Cyclopropyl-4-piperazin-1-yl-pyrido[3,4-d]pyrimidin-2-yl)-pyridin-2-yl]-(5-cyclopropyl-[1,2,4]triazolo[1,5-a]pyridin-2-yl)-amine] | > 7.00
9 | c1ccc(C[C@H]2CN(c3nc(N4CCOCC4)nc4cncc(C5CC5)c34)CCN2)cc1 [Example 1017, 4-((S)-3-Benzyl-piperazin-1-yl)-5-cyclopropyl-2-morpholin-4-yl-pyrido[3,4-d]pyrimidine] | > 7.00
10 | FC(F)(F)c1ccc(Nc2cc(-c3nc(N[C@@H]4CCNC4)c4ccncc4n3)ccn2)nc1 [Example 351, (R)-Pyrrolidin-3-yl-{2-[2-(5-trifluoromethyl-pyridin-2-ylamino)-pyridin-4-yl]-pyrido[3,4-d]pyrimidin-4-yl}-amine] | > 7.00
11 | N[C@H](CNc1nc(-c2ccncc2)nc2c(-c3cccc(-c4cccc(Cl)c4)c3)nccc12)Cc1ccccc1 [Example 106, N-[(2S)-2-amino-3-phenylpropyl]-8-[3-(3-chloro-phenyl)-phenyl]-2-(pyridin-4-yl)pyrido[3,4-d]pyrimidin-4-amine] | 5.00 to 6.00
12 | COc1cncc2nc(-c3ccnc(Nc4ccccc4)c3)nc(N3CCN[C@@H](C(C)C)C3)c12 [Example 224, {4-[4-((S)-3-Isopropyl-piperazin-1-yl)-5-methoxy-pyrido[3,4-d]pyrimidin-2-yl]-pyridin-2-yl}-phenyl-amine] | > 7.00
13 | N[C@H](CNc1nc(-c2ccncc2)nc2c(-c3cccc(O)c3)nccc12)Cc1ccccc1 [Example 92, 3-(4-{[(2S)-2-amino-3-phenylpropyl]-amino}-2-(pyridin-4-yl)-pyrido[3,4-d]-pyrimidin-8-yl)phenol] | 5.00 to 6.00
14 | O[C@@H]1CN(c2nc(-c3ccnc(Nc4cccc(N5CCOCC5)c4)c3)nc3cncc(C4CC4)c23)CC[C@@H]1O (racemic) [Example 2005, (+/−)-cis-1-{5-Cyclopropyl-2-[2-(3-morpholin-4-yl-phenylamino)-pyridin-4-yl]-pyrido[3,4-d]pyrimidin-4-yl}-piperidine-3,4-diol] | > 7.00
15 | CNCCNc1nc(-c2ccnc(Nc3c(F)cccc3F)c2)nc2cncc(C3CC3)c12 [Example 775, N-{5-Cyclopropyl-2-[2-(2,6-difluoro-phenylamino)-pyridin-4-yl]-pyrido[3,4-d]pyrimidin-4-yl}-N′-methyl-ethane-1,2-diamine] | > 7.00
16 | COc1cncc2nc(-c3ccnc(Nc4nc(C)c(C)o4)c3)nc(N3CCNCC3)c12 [Example 203, (4,5-Dimethyl-oxazol-2-yl)-[4-(5-methoxy-4-piperazin-1-yl-pyrido[3,4-d]pyrimidin-2-yl)-pyridin-2-yl]-amine] | > 7.00
17 | COc1cncc2nc(-c3ccnc(NC(=O)Cc4cccc(C#N)c4)c3)nc(N3CCC(O)CC3)c12 [Example 403, 2-(3-Cyano-phenyl)-N-{4-[4-(4-hydroxy-piperidin-1-yl)-5-methoxy-pyrido[3,4-d]pyrimidin-2-yl]-pyridin-2-yl}-acetamide] | 6.00 to 7.00
18 | Clc1ccccc1-c1cc2c(-c3nc(N4CCNCC4)c4c(C5CC5)cncc4n3)ccnc2[nH]1 [Example 2202, 2-[2-(2-Chloro-phenyl)-1H-pyrrolo[2,3-b]pyridin-4-yl]-5-cyclopropyl-4-piperazin-1-yl-pyrido[3,4-d]pyrimidine] | > 7.00
19 | Clc1cc(-c2nc(N3CCN[C@@H](COCc4ccccc4)C3)c3c(C4CC4)cncc3n2)ccn1 [Example 733, 4-((R)-3-Benzyloxymethyl-piperazin-1-yl)-2-(2-chloro-pyridin-4-yl)-5-cyclopropyl-pyrido[3,4-d]pyrimidine] | 5.00 to 6.00
20 | CC(C)(c1cc2c(-c3nc(N4CCNCC4)c4c(C5CC5)cncc4n3)ccnc2[nH]1)C(F)(F)F [Example 2063, 5-Cyclopropyl-4-piperazin-1-yl-2-[2-(2,2,2-trifluoro-1,1-dimethyl-ethyl)-1H-pyrrolo[2,3-b]pyridin-4-yl]-pyrido[3,4-d]pyrimidine] | > 7.00
21 | c1ccc2nc(Nc3cc(-c4nc(N5CCNCC5)c5c(C6CC6)cncc5n4)ccn3)ccc2c1 [Example 2078, [4-(5-Cyclopropyl-4-piperazin-1-yl-pyrido[3,4-d]pyrimidin-2-yl)-pyridin-2-yl]-[D4],[D3]uinolin-2-yl-amine] | > 7.00
22 | CNC1CCCN(c2nc(-c3ccnc(Nc4ncc(F)cc4F)c3)nc3cncc(C4CC4)c23)C1 (centres unmarked) [Example 2205, {4-[5-Cyclopropyl-4-(3-methylamino-piperidin-1-yl)-pyrido[3,4-d]pyrimidin-2-yl]-pyridin-2-yl}-(3,5-difluoro-pyridin-2-yl)-amine] | > 7.00
23 | COc1cncc2nc(-c3ccnc(Nc4cc(C)ccn4)c3)nc(N3CCNCC3)c12 [Example 363, [4-(5-Methoxy-4-piperazin-1-yl-pyrido[3,4-d]pyrimidin-2-yl)-pyridin-2-yl]-(4-methyl-pyridin-2-yl)-amine] | > 7.00
